Results on 1 compound are retold here after patent US20260166017A1, “SARM1 INHIBITORS FOR USE IN THERAPY AND COSMETICS” (priority 2022, published 2026).

For experiment [1], the system named is HEK293 cells. Put plainly: Intracellular NAD+ in HEK293 cells (NAD-glo assay). The format is cell-based, Human. To be noted: 100 μM vacor, 72 hours. On the procedure:
Schwann and HEK 293T cells were treated with 100 μM vacor, 250 μM 3AP, or vehicle controls, and collected in media at Oh and 72 h after treatment. Protein was extracted using Pierce™ IP Lysis Buffer supplemented with cOmplete™ Mini EDTA-free Protease Inhibitor Cocktail, and a BCA assay carried out to determine protein concentration. All samples were diluted to 0.5 μg/μL. The NAD-glo assay was performed according to manufacturer's instruction of the NAD^+/NADH-Glo™ assay by Promega (G9071). In short, 25 μL of sample were incubated with 12.5 μL 0.4M HCl at 60° C. for 15 min, before 12.5 μL 0.5M Tris base were added. 10 μL NAD^+ standards or sample were then mixed with 10 μL NAD-glo master mix (1 ml luciferin detection reagent, 5 μl reductase, 5 μl reductase substrate, 5 μl NAD^+ cycling enzyme, 25 μl NAD^+ cycling substrate) and incubated at RT for 40 min. Luminescence was read using a GloMax® Explorer microplate reader and NAD^+ concentrations determined relative to a NAD^+ standard curve.

The subject of experiment [2] is freshly plated P2 mouse Schwann cells. Kind of experiment: Cell death in freshly plated P2 mouse Schwann cells (propidium iodide, DAPI, SOX10). To be noted: 100 μM vacor for 72 hours vs DMSO. It counts as cell-based. On the procedure:
Freshly plated mouse Schwann cells were obtained from P2 sciatic and brachial nerves. Nerves were digested with trypsin and collagenase, centrifuged and plated on laminin/Poly-L-lysine coated glass coverslips in defined medium as previously described (Arthur-Farraj et al., 2011).
Sciatic and optic nerves were dissected from Wt and Sarm1 KO mice and directly embedded in O.C.T. compound, without fixing, and stored at −80° C. until ready for cryosectioning. Cryosections at 5 μm thick were collected onto SuperFrost plus slides. These slides were post-fixed in 4% paraformaldehyde (PFA) at room temperature for 10 mins followed by three washes of 5 mins each with 1×PBS. The slides were then immersed in 100% methanol at −20° C. for 10 mins, followed by three washes of 5 mins each with 1×PBS. The slides were then blocked in 5% horse serum (HS)/0.2% Triton x-100/PBS for 30 mins at room temperature. Primary antibodies were diluted in blocking solution and slides were incubated overnight at 4° C. The following day, the slides were washed once for 5 mins with 1×PBS, twice for 5 mins with 0.1% tween/PBS and finally once again for 5 mins with 1×PBS before adding secondary antibodies. The corresponding secondary antibodies were diluted at 1:500 along with DAPI at 1:2000 for 2 hrs at room temperature and kept in the dark. […]

The subject of experiment [3] is expanded mouse Schwann cells. Put plainly: Cell death in expanded mouse Schwann cells passaged three times (phase contrast, propidium iodide). The format is cell-based. To be noted: 100 μM vacor for 72 hours vs DMSO; Schwann cells passaged three times in proliferative medium. On the procedure: Mouse SCs were passaged on PLL/laminin coated dishes in the presence of low serum (0.5% horse serum), 10 ng/ml Bneuregulin1 (BNRG1), and a low concentration cyclic adenosine monophosphate (CAMP) elevating signal, such as 2 μM forskolin or 100 μM dibutryl cAMP (Arthur-Farraj et al., 2011). Full protocol is described in (Mutschler et al., 2023).

Experiment [4] deals with neuronal cultures. The settings on record: Loreto et al., 2021, Wu et al.; cited from earlier work.
Experiment [5] concerns the target T1, SARM1 (Homo sapiens, UniProt Q6SZW1).
T1 sequence (Q6SZW1 28-724): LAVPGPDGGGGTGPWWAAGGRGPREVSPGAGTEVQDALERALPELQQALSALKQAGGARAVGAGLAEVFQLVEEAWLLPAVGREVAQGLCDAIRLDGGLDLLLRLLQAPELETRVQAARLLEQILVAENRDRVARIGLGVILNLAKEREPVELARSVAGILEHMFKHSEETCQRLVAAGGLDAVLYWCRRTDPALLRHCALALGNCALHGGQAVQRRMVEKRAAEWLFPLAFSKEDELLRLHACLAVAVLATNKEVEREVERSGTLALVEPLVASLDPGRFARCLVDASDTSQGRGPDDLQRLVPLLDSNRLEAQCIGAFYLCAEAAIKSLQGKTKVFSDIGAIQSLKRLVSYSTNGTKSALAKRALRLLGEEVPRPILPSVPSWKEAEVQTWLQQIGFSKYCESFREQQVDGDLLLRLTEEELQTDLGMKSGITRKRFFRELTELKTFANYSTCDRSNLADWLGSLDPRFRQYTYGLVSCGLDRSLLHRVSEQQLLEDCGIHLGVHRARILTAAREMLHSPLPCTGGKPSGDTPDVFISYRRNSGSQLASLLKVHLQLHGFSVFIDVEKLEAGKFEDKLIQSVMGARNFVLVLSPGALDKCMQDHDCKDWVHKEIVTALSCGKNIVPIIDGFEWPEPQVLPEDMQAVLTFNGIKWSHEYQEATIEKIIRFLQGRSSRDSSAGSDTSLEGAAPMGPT
To be noted: Loreto et al., 2021; Angeletti et al., 2022; Wu et al.; cited from earlier work.

“Also recorded” adds a separate entry of the source.

Regarding `O=C(NCc1cccnc1)Nc1ccc([N+](=O)[O-])cc1` [vacor, Vacor], in experiment [1], the “Intracellular NAD+ levels” value is on record as “decrease”. In addition, the “cell death judged by propidium iodide (P.I) and DAPI nuclear staining and SOX10 immunocytochemistry” value in experiment [2] is given as “completely insensitive; also recorded: no cell death”. For the same compound, the “cell death by propidium iodide (P.I.) staining and phase contrast” value in experiment [3] is “susceptible to cellular dysfunction and death; also recorded: substantial increase in P.I. staining”. Besides, the “effect of high dose on neuronal cultures” value in experiment [4] was “axonal degeneration and cell death within hours”. The “SARM1 activity on interaction with active site (TIR domain) for base exchange reaction” value in experiment [5] was “modest increase in SARM1 activity”.
